Measured values: the Kinase Knowledgebase extract (Sharma et al. 2016)

Each compound was assayed against ROCK2 (UniProt O75116) (assay: Inhibition of ROCK2 Kinase Activity).
Sequence of ROCK2 (O75116 whole entry, looked up): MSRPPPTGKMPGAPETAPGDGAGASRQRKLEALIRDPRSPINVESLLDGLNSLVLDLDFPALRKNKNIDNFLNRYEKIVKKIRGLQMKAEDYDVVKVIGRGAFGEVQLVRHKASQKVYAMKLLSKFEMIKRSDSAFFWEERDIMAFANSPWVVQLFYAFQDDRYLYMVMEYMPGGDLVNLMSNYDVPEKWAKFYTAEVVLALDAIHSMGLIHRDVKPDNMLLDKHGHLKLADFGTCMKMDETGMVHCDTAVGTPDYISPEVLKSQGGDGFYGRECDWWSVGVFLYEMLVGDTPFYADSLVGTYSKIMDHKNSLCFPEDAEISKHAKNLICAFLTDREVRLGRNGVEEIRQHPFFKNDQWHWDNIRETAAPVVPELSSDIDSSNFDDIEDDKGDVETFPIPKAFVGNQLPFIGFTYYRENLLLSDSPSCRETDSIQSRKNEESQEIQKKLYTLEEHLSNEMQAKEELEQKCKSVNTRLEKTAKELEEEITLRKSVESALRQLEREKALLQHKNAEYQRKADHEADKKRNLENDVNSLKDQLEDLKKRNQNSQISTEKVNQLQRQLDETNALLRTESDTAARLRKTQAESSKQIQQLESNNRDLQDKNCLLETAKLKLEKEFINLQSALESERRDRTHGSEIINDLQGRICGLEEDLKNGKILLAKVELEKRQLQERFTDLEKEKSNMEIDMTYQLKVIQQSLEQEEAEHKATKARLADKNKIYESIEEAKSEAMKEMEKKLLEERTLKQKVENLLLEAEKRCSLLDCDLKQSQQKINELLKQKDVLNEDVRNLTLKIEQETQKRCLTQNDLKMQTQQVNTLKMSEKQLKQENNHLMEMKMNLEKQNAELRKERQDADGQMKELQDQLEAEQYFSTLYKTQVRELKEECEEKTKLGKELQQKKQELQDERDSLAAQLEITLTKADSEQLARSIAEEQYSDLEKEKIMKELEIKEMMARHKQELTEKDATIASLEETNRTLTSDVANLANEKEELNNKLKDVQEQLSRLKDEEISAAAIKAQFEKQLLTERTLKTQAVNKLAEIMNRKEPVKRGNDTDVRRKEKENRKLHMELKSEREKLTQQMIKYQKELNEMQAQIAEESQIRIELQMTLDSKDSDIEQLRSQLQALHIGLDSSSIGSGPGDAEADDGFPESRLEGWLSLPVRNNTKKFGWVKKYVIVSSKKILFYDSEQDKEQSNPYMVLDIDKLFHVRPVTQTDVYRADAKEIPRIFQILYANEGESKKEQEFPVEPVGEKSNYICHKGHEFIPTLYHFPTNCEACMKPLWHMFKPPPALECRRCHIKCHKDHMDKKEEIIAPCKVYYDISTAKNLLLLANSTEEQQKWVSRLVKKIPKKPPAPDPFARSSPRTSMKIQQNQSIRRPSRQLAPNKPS
Work on CC(C)(N)c1ccc(-c2ccc3[nH]ncc3c2OCC2CC2)nc1 yielded a Ki of 146 nM.
CCC(N)(CC)c1ccc(-c2ccc3[nH]ncc3c2OC)nc1 gave a Ki of 38 nM.
CC(C)(N)c1ccc(-c2ccc3[nH]ncc3c2OC2CC2)nc1 showed a Ki of 28 nM.
For CCOc1c(-c2ccc(C(N)(CC)CC)cn2)ccc2[nH]ncc12, the Ki was 35 nM.
CC(C)(N)c1ccc(-c2ccc3[nH]ncc3c2[N+](=O)[O-])cc1 gave a Ki of 28 nM.
COc1c(-c2ccc(C3(N)CCCC3)cn2)ccc2[nH]ncc12 showed a Ki of 27 nM.
CC(C)Oc1c(-c2ccc(C(C)(C)N)cc2)ccc2[nH]ncc12 was tested, and the Ki was 33 nM.
In the case of CCc1c(-c2ccc(C(C)(C)N)cn2)ccc2[nH]ncc12, the Ki is reported as 15 nM.
With CC(C)(N)c1ccc(-c2ccc3[nH]ncc3c2CO)cc1 the Ki was 139 nM.
CC(C)(N)c1ccc(-c2ccc3[nH]ncc3c2OC(F)F)cc1 showed a Ki of 3.6 nM.
For CC(C)(N)c1ccc(-c2ccc3[nH]ncc3c2-c2ccccn2)cc1, the Ki was 241 nM.
CC(C)(N)c1cnc(-c2ccc3[nH]ncc3c2)c(Cl)c1 was tested, and the Ki was 86 nM.
CN(C)c1c(-c2ccc(C(C)(C)N)cc2)ccc2[nH]ncc12 was tested, and the Ki was 16 nM.
CC(C)(N)c1ccc(-c2ccc3[nH]ncc3c2OCC(F)(F)F)cc1 was tested, and the Ki was 31 nM.
In the case of Nc1c(-c2ccc(C3(N)CCCC3)cc2)ccc2[nH]ncc12, the Ki is reported as 26 nM.
For CC(C)(N)c1ccc(-c2ccc3[nH]nc(C#N)c3c2)cc1, the Ki was 103 nM.
Work on CCC(N)(CC)c1ccc(-c2ccc3[nH]ncc3c2N(C)C)cc1 yielded a Ki of 23 nM.
CCOc1c(-c2ccc(C(C)(C)N)cc2)ccc2[nH]ncc12 showed a Ki of 17 nM.
C=C(C)c1n[nH]c2ccc(-c3ccc(C(C)(C)N)cc3)cc12 gave a Ki of 56 nM.
CC(C)(N)c1ccc(-c2ccc3[nH]ncc3c2OCCF)cc1 gave a Ki of 26 nM.
Compound CCCOc1c(-c2ccc(C(C)(C)N)cn2)ccc2[nH]ncc12 has a Ki of 39 nM.
Work on CC(C)(N)c1ccc(-c2ccc3[nH]ncc3c2-c2ccno2)cc1 yielded a Ki of 6.4 nM.
CC(C)(N)c1ccc(-c2ccc3[nH]nc(C=NO)c3c2)cc1 was tested, and the Ki was 7.5 nM.
With CCC(N)(CC)c1ccc(-c2ccc3[nH]ncc3c2OC(F)F)cc1 the Ki was 13 nM.
In the case of CCOc1c(-c2ccc(C(C)(C)N)cn2)ccc2[nH]ncc12, the Ki is reported as 45 nM.
With CC(C)(N)c1ccc(-c2ccc3[nH]ncc3c2[N+](=O)[O-])nc1 the Ki was 199 nM.
CCC(N)(CC)c1ccc(-c2ccc3[nH]ncc3c2OC2CC2)nc1 showed a Ki of 34 nM.
CC(C)(N)c1ccc(-c2ccc3[nH]ncc3c2)nc1 showed a Ki of 20 nM.
For CC(C)(N)c1ccc(-c2ccc3[nH]ncc3c2CCO)cc1, the Ki was 47 nM.
Compound CC(C)(N)c1ccc(-c2ccc3[nH]ncc3c2)cc1 has a Ki of 19 nM.
With CN(C)c1c(-c2ccc(CN)cc2)ccc2[nH]ncc12 the Ki was 29 nM.
With CC(C)(N)c1ccc(-c2ccc3[nH]ncc3c2N2CCCC2)cc1 the Ki was 14 nM.
COc1c(-c2ccc(C(C)(C)N)cc2)ccc2[nH]ncc12 was tested, and the Ki was 13 nM.
CC(C)Oc1c(-c2ccc(C(C)(C)N)cn2)ccc2[nH]ncc12 was tested, and the Ki was 84 nM.
In the case of CNc1c(-c2ccc(C(C)(C)N)cc2)ccc2[nH]ncc12, the Ki is reported as 15 nM.
For CC(C)(N)c1ccc(-c2ccc3[nH]ncc3c2-c2cnco2)cc1, the Ki was 2.6 nM.
Compound COC(=O)c1n[nH]c2ccc(-c3ccc(C(C)(C)N)cc3)cc12 has a Ki of 97 nM.
CC(C)(N)c1ccc(-c2ccc3[nH]ncc3c2-c2ccncc2)cc1 showed a Ki of 45 nM.
In the case of CC(N)c1ccc(-c2ccc3[nH]ncc3c2N(C)C)cc1 (stereo not drawn), the Ki is reported as 27 nM.
CC(C)(N)c1ccc(-c2ccc3[nH]nc(C(N)=O)c3c2)cc1 showed a Ki of 134 nM.
CCN(CC)c1c(-c2ccc(C(C)(C)N)cc2)ccc2[nH]ncc12 showed a Ki of 614 nM.
CC(C)(N)c1ccc(-c2ccc3[nH]ncc3c2N)cc1 was tested, and the Ki was 44 nM.
Compound CC(O)c1c(-c2ccc(C(C)(C)N)cc2)ccc2[nH]ncc12 (stereo not drawn) has a Ki of 294 nM.
Work on CCCCOc1c(-c2ccc(C(C)(C)N)cc2)ccc2[nH]ncc12 yielded a Ki of 13 nM.
CC(C)(N)c1ccc(-c2ccc3[nH]ncc3c2-c2cc[nH]n2)cc1 gave a Ki of 11 nM.
With NCc1ccc(-c2ccc3[nH]ncc3c2[N+](=O)[O-])cc1 the Ki was 55 nM.
CC(C)(N)c1ccc(-c2ccc3[nH]ncc3c2NCc2ccccc2)cc1 gave a Ki of 260 nM.
Compound CCCOc1c(-c2ccc(C(C)(C)N)cc2)ccc2[nH]ncc12 has a Ki of 14 nM.
CC(C)(N)c1ccc(-c2ccc3[nH]ncc3c2C#N)cc1 showed a Ki of 35 nM.
In the case of CCC(N)(CC)c1ccc(-c2ccc3[nH]ncc3c2N)cc1, the Ki is reported as 38 nM.
With COc1c(-c2ccc(C(C)(C)N)cn2)ccc2[nH]ncc12 the Ki was 27 nM.
Work on CC(C)(N)c1ccc(-c2ccc3[nH]ncc3c2-c2cn[nH]c2)nc1 yielded a Ki of 56 nM.
CC(C)(N)c1ccc(-c2ccc3[nH]ncc3c2O)cc1 was tested, and the Ki was 29 nM.
C=CCOc1c(-c2ccc(C(C)(C)N)cc2)ccc2[nH]ncc12 showed a Ki of 23 nM.
Compound CN(C)c1c(-c2ccc(C3(N)CCCC3)cc2)ccc2[nH]ncc12 has a Ki of 14 nM.
CC(C)(N)c1ccc(-c2ccc3[nH]ncc3c2-c2cccnc2)cc1 showed a Ki of 126 nM.
CC(C)(N)c1ccc(-c2ccc3[nH]nc(CO)c3c2)cc1 was tested, and the Ki was 142 nM.
Work on CC(C)(N)c1ccc(-c2ccc3[nH]ncc3c2N2CCOCC2)cc1 yielded a Ki of 211 nM.
CC(C)(N)c1ccc(-c2ccc3[nH]ncc3c2CCO)nc1 showed a Ki of 234 nM.
NCc1ccc(-c2ccc3[nH]ncc3c2N)cc1 showed a Ki of 61 nM.
Compound CC(C)(N)c1ccc(-c2ccc3[nH]nc(N)c3c2)cc1 has a Ki of 144 nM.
With CC(C)(N)c1ccc(-c2ccc3[nH]ncc3c2-n2cccc2)cc1 the Ki was 12 nM.
CC(C)(N)c1ccc(-c2ccc3[nH]ncc3c2-c2cn[nH]c2)cc1 gave a Ki of 4.4 nM.
Compound CC(C)(N)c1ccc(-c2ccc3[nH]ncc3c2OC(F)F)nc1 has a Ki of 6.9 nM.
Work on CC(C)(N)c1ccc(-c2ccc3[nH]ncc3c2N2CCCCC2)cc1 yielded a Ki of 14 nM.
With CC(C)(N)c1ccc(-c2ccc3[nH]ncc3c2C2CC2)nc1 the Ki was 2.7 nM.
C=Cc1c(-c2ccc(C(C)(C)N)cn2)ccc2[nH]ncc12 was tested, and the Ki was 17 nM.
CC(C)(N)c1ccc(-c2ccc3[nH]ncc3c2O)nc1 was tested, and the Ki was 55 nM.
